Results from patent US20090311237A1, “Combination therapy using a soluble hyaluronidase and a bisphosphonate” (priority 2008, published 2009).
Where “and” joins values, the source holds several entries; their conditions need not be identical. Identical values can stand only once. Like-named read-outs stand apart in the source and are kept apart here.

Assay: Phase 1 Stage 1 clinical pharmacokinetics of SC ZA co-administered with rHuPH20
Assay type: in vivo, human
Details: for half-life / AUC(0-t) / Cmax / AUC(0-inf) / Tmax: human, serum; for half-life: read-out: T½ λz (converted); for AUC(0-inf): read-out: AUC (0-inf); for Tmax: read-out: Tmax
Method: A pharmacokinetic study of zoledronic acid (ZA) co-administered with rHuPH20 in human subjects was conducted. The primary objective of the study was to determine the bioavailability of zoledronic acid dosed via subcutaneous (SC) co-administration with human recombinant hyaluronidase PH20 (rHuPH20). […] The patients were administered the prescribed dosage formulations as follows: Cohorts 1-5 were administered a single subcutaneous infusion in a dosage volume of 100 ml at a rate of 3 mL/min. […] The dosing solution is administered via needle or catheter into the SC space of the left anterior thigh (midway between the anterior iliac crest and the cephalad border of the patella). For cohorts 1-5, the dosing solutions were administered by a controlled rate infusion pump at approximately 3 mL/minute. […] The dosing solutions were administered by syringe push bolus injection. […] Serum concentration of ZA was determined using a qualified LC-MS-MS assay after derivatization with diazomethane (Zhu, L S et al. (2006) Rapid Commun. […] The assay range was from 2.0 to 400 ng/mL with a lower limit of quantitation (LLOQ) at 2.0 ng/mL. […] Non-compartmental analysis was used for derivation of primary and secondary pharmacokinetic (PK) parameters. […] Summary statistics (mean, standard deviation, and median) were calculated using JMP or Microsoft Excel.

[1] = ZA 2 mg SC + 24000 U rHuPH20, mean, n=3
[2] = ZA 2 mg SC + 24000 U rHuPH20, median, n=3
[3] = ZA 2 mg SC, 100 mL, 24000 Units rHuPH20, n=3
[4] = ZA 5 mg SC + 24000 U rHuPH20, individual subjects
[5] = ZA 5 mg SC + 24000 U rHuPH20, mean, n=3
[6] = ZA 5 mg SC + 24000 U rHuPH20, median, n=3
[7] = ZA 5 mg SC, 100 mL, 24000 Units rHuPH20, n=3
[8] = ZA 0.25-5 mg SC, 100 mL, 24000 Units rHuPH20, n=15
[9] = sc, 0.0196 mg/kg, Subj 27, ZA 0.0196 mg/kg SC, inf […], PH20 23976 U
[10] = sc, 0.0339 mg/kg, Subj 29, ZA 0.0339 mg/kg SC, inf 0.556 hr, PH20 24000 U
[11] = sc, 0.0608 mg/kg, Subj 68, ZA 0.0608 mg/kg SC, inf […], PH20 2880 U
[12] = sc, 0.0653 mg/kg, Subj 41, ZA 0.0653 mg/kg SC, inf […], PH20 12216 U
[13] = sc, 0.0691 mg/kg, Subj 39, ZA 0.0691 mg/kg SC, inf 0.552 hr, PH20 23856 U
[14] = sc, 0.0706 mg/kg, Subj 38, ZA 0.0706 mg/kg SC, inf 0.554 hr, PH20 23952 U
[15] = sc, 0.0717 mg/kg, Subj 67, ZA 0.0717 mg/kg SC, inf […], PH20 2880 U
[16] = sc, 0.0776 mg/kg, Subj 70, ZA 0.0776 mg/kg SC, inf […], PH20 2928 U
[17] = sc, 0.0781 mg/kg, Subj 71, ZA 0.0781 mg/kg SC, inf […], PH20 6000 U

With `O=P(O)(O)C(O)(Cn1ccnc1)P(=O)(O)O` [ZA, 1-hydroxy-2-(1H-imidazol-1-yl)ethylidene-1,1-bisphosphonic acid] the T½elim (ZA 2 mg SC + 24000 U rHuPH20, individual subjects) was 12.72 h (2×) and 22.02 h, the “AUC (0-∞)/D” value [1] was 0.00791 kg·h/mL and the Cmax/D [1] was 0.00176 kg/mL. For the same molecule, the T½elim [1] was 15.82 h, the “AUC (0-∞)/D” value [2] was 0.00809 kg·h/mL and the Cmax/D [2] was 0.00175 kg/mL. The T½elim [2] was 12.72 h, the “MAT (mean absorption time = SC MRT − IV MRT)” value (ZA 2 mg SC, 100 mL, 24000 Units rHuPH20, individual subjects) was 0.47 h and 0.94 h and 1.39 h and the “MAT, Mean for the dose group” value [3] was 0.93 h. For the same molecule, the “MAT, Median for the dose group” value [3] was 0.94 h, the “AUC (0-12h)” value [4] was 477.36 ng·h/mL and 575.89 ng·h/mL and the “AUC (0-∞)” value [4] was 729.31 ng·h/mL. For the same molecule, the “AUC (0-∞)/D” value [4] was 0.00789 kg·h/mL and 0.00901 kg·h/mL and 0.01049 kg·h/mL, the Cmax/D [4] was 0.00167 kg/mL and 0.00165 kg/mL and 0.00211 kg/mL and the MRT [4] was 13.81 h. For the same molecule, the T½elim [4] was 23.36 h and 24.45 h and 26.05 h, the “AUC (0-∞)/D” value [5] was 0.00913 kg·h/mL and the Cmax/D [5] was 0.00181 kg/mL. For the same molecule, the T½elim [5] was 24.62 h, the “AUC (0-∞)/D” value [6] was 0.00901 kg·h/mL and the Cmax/D [6] was 0.00167 kg/mL. For the same molecule, the T½elim [6] was 24.45 h, the “MAT (mean absorption time = SC MRT − IV MRT)” value (ZA 5 mg SC, 100 mL, 24000 Units rHuPH20, individual subjects) was 1.74 h and 4.61 h and 3.46 h and the “MAT, Mean for the dose group” value [7] was 3.27 h. The “MAT, Median for the dose group” value [7] was 3.46 h, the “MAT, Mean for all dose groups” value [8] was 1.64 h and the “MAT, Median for all dose groups” value [8] was 1.39 h. For the same molecule, the half-life (0.082 mg/kg, Subj 63, ZA 0.0820 mg/kg SC, inf 0.250 hr, PH20 6000 U) was 20.5 h, the AUC(0-t) (sc, 0.0196 mg/kg, AUC (0-12 h), Subj 27, ZA 0.0196 mg/kg SC, inf […], PH20 23976 U) was 104 ng·h/mL and the AUC(0-t) (sc, 0.0196 mg/kg, AUC (0-24 h), Subj 27, ZA 0.0196 mg/kg SC, inf […], PH20 23976 U) was 116 ng·h/mL. The AUC(0-t) (sc, 0.0196 mg/kg, AUC (0-48 h), Subj 27, ZA 0.0196 mg/kg SC, inf […], PH20 23976 U) was 119 ng·h/mL, the Cmax [9] was 25 ng/mL and the AUC(0-inf) [9] was 120 ng·h/mL. The Tmax [9] was 0.72 h, the half-life (sc, 0.0196 mg/kg) was 6.53 h and the AUC(0-t) (sc, 0.0339 mg/kg, AUC (0-12 h), Subj 29, ZA 0.0339 mg/kg SC, inf 0.556 hr, PH20 24000 U) was 217 ng·h/mL. The AUC(0-t) (sc, 0.0339 mg/kg, AUC (0-24 h), Subj 29, ZA 0.0339 mg/kg SC, inf 0.556 hr, PH20 24000 U) was 231 ng·h/mL, the AUC(0-t) (sc, 0.0339 mg/kg, AUC (0-48 h), Subj 29, ZA 0.0339 mg/kg SC, inf 0.556 hr, PH20 24000 U) was 236 ng·h/mL and the Cmax [10] was 62.8 ng/mL. The AUC(0-inf) [10] was 241 ng·h/mL, the Tmax [10] was 1.29 h and the AUC(0-t) (sc, 0.0608 mg/kg, AUC (0-12 h), Subj 68, ZA 0.0608 mg/kg SC, inf […], PH20 2880 U) was 456 ng·h/mL. For the same molecule, the AUC(0-t) (sc, 0.0608 mg/kg, AUC (0-24 h), Subj 68, ZA 0.0608 mg/kg SC, inf […], PH20 2880 U) was 503 ng·h/mL, the AUC(0-t) (sc, 0.0608 mg/kg, AUC (0-48 h), Subj 68, ZA 0.0608 mg/kg SC, inf […], PH20 2880 U) was 557 ng·h/mL and the Cmax [11] was 144 ng/mL. The AUC(0-inf) [11] was 630 ng·h/mL, the Tmax [11] was 1 h and the half-life (sc, 0.0608 mg/kg) was 27.9 h. The AUC(0-t) (sc, 0.0653 mg/kg, AUC (0-12 h), Subj 41, ZA 0.0653 mg/kg SC, inf […], PH20 12216 U) was 487 ng·h/mL, the AUC(0-t) (sc, 0.0653 mg/kg, AUC (0-24 h), Subj 41, ZA 0.0653 mg/kg SC, inf […], PH20 12216 U) was 531 ng·h/mL and the AUC(0-t) (sc, 0.0653 mg/kg, AUC (0-48 h), Subj 41, ZA 0.0653 mg/kg SC, inf […], PH20 12216 U) was 597 ng·h/mL. For the same molecule, the Cmax [12] was 141 ng/mL, the AUC(0-inf) [12] was 736 ng·h/mL and the Tmax [12] was 1.01 h. It also gave a half-life (sc, 0.0653 mg/kg) of 42.8 h, an AUC(0-t) (sc, 0.0691 mg/kg, AUC (0-12 h), Subj 39, ZA 0.0691 mg/kg SC, inf 0.552 hr, PH20 23856 U) of 574 ng·h/mL and an AUC(0-t) (sc, 0.0691 mg/kg, AUC (0-24 h), Subj 39, ZA 0.0691 mg/kg SC, inf 0.552 hr, PH20 23856 U) of 619 ng·h/mL. It also gave an AUC(0-t) (sc, 0.0691 mg/kg, AUC (0-48 h), Subj 39, ZA 0.0691 mg/kg SC, inf 0.552 hr, PH20 23856 U) of 667 ng·h/mL, a Cmax [13] of 147 ng/mL and an AUC(0-inf) [13] of 727 ng·h/mL. For the same molecule, the Tmax [13] was 0.79 h, the half-life (sc, 0.0691 mg/kg) was 26.1 h and the AUC(0-t) (sc, 0.0706 mg/kg, AUC (0-12 h), Subj 38, ZA 0.0706 mg/kg SC, inf 0.554 hr, PH20 23952 U) was 477 ng·h/mL. For the same molecule, the AUC(0-t) (sc, 0.0706 mg/kg, AUC (0-24 h), Subj 38, ZA 0.0706 mg/kg SC, inf 0.554 hr, PH20 23952 U) was 524 ng·h/mL, the AUC(0-t) (sc, 0.0706 mg/kg, AUC (0-48 h), Subj 38, ZA 0.0706 mg/kg SC, inf 0.554 hr, PH20 23952 U) was 580 ng·h/mL and the Cmax [14] was 117 ng/mL. It also gave an AUC(0-inf) [14] of 637 ng·h/mL, a Tmax [14] of 1.3 h and an AUC(0-t) (sc, 0.0717 mg/kg, AUC (0-12 h), Subj 67, ZA 0.0717 mg/kg SC, inf […], PH20 2880 U) of 565 ng·h/mL. The AUC(0-t) (sc, 0.0717 mg/kg, AUC (0-24 h), Subj 67, ZA 0.0717 mg/kg SC, inf […], PH20 2880 U) was 630 ng·h/mL, the AUC(0-t) (sc, 0.0717 mg/kg, AUC (0-48 h), Subj 67, ZA 0.0717 mg/kg SC, inf […], PH20 2880 U) was 683 ng·h/mL and the Cmax [15] was 156 ng/mL. It also gave an AUC(0-inf) [15] of 725 ng·h/mL, a Tmax [15] of 0.74 h and a half-life (sc, 0.0717 mg/kg) of 18.3 h. The AUC(0-t) (sc, 0.0776 mg/kg, AUC (0-12 h), Subj 70, ZA 0.0776 mg/kg SC, inf […], PH20 2928 U) was 573 ng·h/mL, the AUC(0-t) (sc, 0.0776 mg/kg, AUC (0-24 h), Subj 70, ZA 0.0776 mg/kg SC, inf […], PH20 2928 U) was 616 ng·h/mL and the AUC(0-t) (sc, 0.0776 mg/kg, AUC (0-48 h), Subj 70, ZA 0.0776 mg/kg SC, inf […], PH20 2928 U) was 658 ng·h/mL. It also gave a Cmax [16] of 215 ng/mL, an AUC(0-inf) [16] of 690 ng·h/mL and a Tmax [16] of 0.68 h. The half-life (sc, 0.0776 mg/kg) was 19.4 h, the AUC(0-t) (sc, 0.0781 mg/kg, AUC (0-12 h), Subj 71, ZA 0.0781 mg/kg SC, inf […], PH20 6000 U) was 592 ng·h/mL and the AUC(0-t) (sc, 0.0781 mg/kg, AUC (0-24 h), Subj 71, ZA 0.0781 mg/kg SC, inf […], PH20 6000 U) was 629 ng·h/mL. The AUC(0-t) (sc, 0.0781 mg/kg, AUC (0-48 h), Subj 71, ZA 0.0781 mg/kg SC, inf […], PH20 6000 U) was 665 ng·h/mL, the Cmax [17] was 198 ng/mL and the AUC(0-inf) [17] was 693 ng·h/mL. It also gave a Tmax [17] of 0.88 h.
